# Source: US8048900B2, “Use of 15-lipoxygenase inhibitors for treating obesity” (Genfit S.A., priority 2006, dated 2011)
# Like-named read-outs stand apart in the source and are kept apart here.
# What was measured:
# [1] = tested on: 15-LO; conditions: 15-LO inhibition, cited from earlier work
# [2] = tested on: human abdominal visceral PA; assay: aP2 marker expression during differentiation of human abdominal visceral pre-adipocytes (RT-PCR / RT-QPCR); assay type: cell-based
# Experimental: (§1) HWP from Promocell are maintained in PA growth medium (0.4% ECGS/H, 5% FCS, 10 ng/ml EGF, 1 μg/ml hydrocortisone, 50 ng/ml amphotericin B, 50 μg/ml gentamycin) until confluence. When cells reach confluence, they are differentiated for 3 days in PA differentiation medium (8 μg/ml d-biotin, 0.5 μg/ml recombinant human insulin, 400 ng/ml dexamethasone, 44 μg/ml IBMX, 9 ng/ml L-thyroxin, 3 μg/ml ciglitazone, 50 ng/ml amphotericin B, 50 ng/ml gentamycin), then cultured to the terminal differentiation stage in adipocyte nutritive medium (3% FCS, 8 μg/ml d-biotin, 0.5 μg/ml recombinant human insulin, 400 ng/ml dexamethasone, 50 ng/ml amphotericin B, 50 μg/ml gentamycin). PA from Cambrex are maintained in PA growth medium (10% FCS, 100 U/ml penicillin, 100 μg/ml streptomycin) until confluence, then the medium is replaced by differentiation medium (10% FCS, 10 μg/ml recombinant human insulin, 1 μM dexamethasone, 500 μM IBMX, 200 μM indomethacin, 100 U/ml penicillin, 100 μg/ml streptomycin) throughout the differentiation process. Extraction of RNA and Analysis of 15-LO-1 and aP2 Gene Expression by RT-PCR and RT-QPCR
# Human abdominal visceral PA from several donors are differentiated as described in example 4. PD146176 diluted in DMSO is added when the PA reached confluence (D0) and is maintained in the medium during the differentiation of PA to adipocytes. DMSO at 0.1% final concentration is added to the culture medium as negative control.
# aP2 (adipocyte lipid-binding protein), like adiponectin, is a marker of adipocyte differentiation. Total RNA is extracted from the cells at different times during differentiation (D3, D7) as described in example 3 and expression of the aP2 marker is analyzed by RT-PCR or RT-QPCR as described in examples 1 and 2. Relative expression is reported with reference to the day of confluence (D0) and normalized to cyclophilin expression.
# [3] = tested on: 3T3-L1 cells; assay: Assay of intracellular triglycerides in 3T3-L1 cells; assay type: cell-based, mouse
# Experimental: The mouse PA 3T3-L1 cell line (ATCC) is maintained in DMEM (Dulbecco's Modified Eagle's minimal essential Medium) supplemented with 10% FCS, L-glutamine and a penicillin/streptomycin mixture. At confluence (D0), 3T3-L1 cells are differentiated by a two-day treatment with a mixture of dexamethasone (0.1 μM), isobutylmethylxanthine (0.25 mM) and insulin (0.4 μM). Cells are then maintained on insulin for another 14 days until differentiation is complete. Photographs are taken at different times after confluence in order to visually follow the differentiation process. PD146176 is added to the 3T3-L1 cells when they reach confluence (D0) and is maintained throughout the differentiation process with replacement every other day at the same time as the insulin. To assay intracellular triglycerides, the 3T3-L1 cells are differentiated in 24-well microtiter plates. Cells are washed three times in PBS, then 500 μl of homogenization buffer (150 mM NaCl, Tris HCL pH 8, 0.1% Triton X-100) are added to each well. The cells are scraped into a tube and lysed by sonication for 10 seconds at 40 watts. The lysate is then filtered on a 0.2 μM millipore filter. The assay is carried out on 125 μl of the resulting lysate using the Triglyceride L-type kit (Wako). The assay is normalized for the protein content of the lysates.
# [4] = tested on: 3T3-L1 cells; assay: aP2 and LPL expression by RT-QPCR in 3T3-L1 cells during differentiation; assay type: cell-based, mouse; conditions: addition at D0, starting from D3 of differentiation
# Experimental: (§2) The mouse PA 3T3-L1 cell line (ATCC) is maintained in DMEM (Dulbecco's Modified Eagle's minimal essential Medium) supplemented with 10% FCS, L-glutamine and a penicillin/streptomycin mixture. At confluence (D0), 3T3-L1 cells are differentiated by a two-day treatment with a mixture of dexamethasone (0.1 μM), isobutylmethylxanthine (0.25 mM) and insulin (0.4 μM). Cells are then maintained on insulin for another 14 days until differentiation is complete. Photographs are taken at different times after confluence in order to visually follow the differentiation process.
# (§3) PD146176 is added to the 3T3-L1 cells when they reach confluence (D0) and is maintained throughout the differentiation process with replacement every other day at the same time as the insulin.
# Total RNA is extracted at different times during differentiation as described in example 3 and expression of the aP2 and LPL (lipoprotein lipase) genes is analyzed by RT-QPCR according to the method described in example 2 (see Table 9).
# [5] = tested on: 3T3-L1 cells; assay: 3T3-L1 cell morphology during adipocyte differentiation; assay type: cell-based, mouse; conditions: addition at D0, photographs during differentiation
# Experimental: as §2, §3
# [6] = tested on: 3T3-L1 cells; assay: Quantification of 3T3-L1 differentiation with AdipoRed; assay type: cell-based, mouse; conditions: addition at D0, starting from D3 of differentiation
# Experimental: as §2, §3
# The gradual accumulation of intracellular droplets is also used as a functional marker of differentiation to adipocytes. To quantify this accumulation the 3T3-L1 cells are differentiated in 96-well microtiter plates. The plates are removed from the incubator on the day of the assay in order to reequilibrate to room temperature. The medium is removed, the cells carefully rinsed with 200 μl PBS, and 200 μl PBS are then added to each well followed by 5 μl AdipoRed reagent (Cambrex, Paris, France). The plates are mixed before measuring fluorescence on a fluorimeter at an excitation wavelength of 485 nm and an emission wavelength of 535 nm.
# [7] = tested on: human abdominal visceral PA; assay: Adiponectin secretion during differentiation of human abdominal visceral pre-adipocytes; assay type: cell-based; conditions: culture supernatant, D7 of differentiation, treated from D0, PA culture No. 3 passage 4
# Experimental: as §1, with “Extraction of RNA and Analysis of 15-LO-1 and aP2 Gene Expression by RT-PCR and RT-QPCR” left out
# Adiponectin is a factor secreted by adipocytes and, like aP2, serves as a marker of adipocyte differentiation in our cultures. Adiponectin concentrations is determined in culture supernatants at different times during differentiation using the Quantikine human adiponectin/ACRP30 kit according to the supplier's instructions (R&D, Minneapolis, Minn., USA).
# [8] = tested on: rat PA; assay: Rat primary PA morphology during adipocyte differentiation; assay type: cell-based; conditions: 2.2 μM added at D0
# Experimental: (§4) Cells from the VS fraction (isolated by the same method as that described in example 3) are seeded in 6-well plates at a density of 80,000 cells/cm^2 in medium 199 (Gibco) supplemented with 10% FCS and a penicillin/streptomycin mixture. After a 16-hour incubation to allow cell adherence, the wells are gently rinsed with PBS to remove any non-adherent material. The cells are grown to confluence (D0) at which time the medium 199 is removed and replaced by ITT medium (DME/Ham's F12, 15 mM NaHCO3, 15 mM Hepes, 33 μm biotin, 17 μM panthotenate, 0.5 μM human insulin, 0.2 nM triiodothyronine and antibiotics) without addition of serum. Cells are maintained in this medium to enable differentiation; the medium is changed every 2-3 days during the differentiation process.
# (§5) Caffeic acid (2.2 μM) was added when the rat PA reach confluence (D0) and is maintained during the adipocyte differentiation process. At a concentration of 2.2 μM, caffeic acid is considered as a selective inhibitor of 15-LO (Shureiqi I, Chen D, Lee J J, Yang P, Newman R A, Brenner D E, Lotan R, Fischer S M and Lippman S M, 2000). DMSO is added to 0.1% final concentration to the culture medium as negative control.
# [9] = tested on: rat PA; assay: aP2 expression in rat primary PA during adipocyte differentiation; assay type: cell-based; conditions: 2.2 μM added at D0, read at D3
# Experimental: as §4
# as §5, with “DMSO is added to 0.1% final concentration to the culture medium as negative control.” left out
# Total RNA is extracted at different times during differentiation according to the method described in example 3 and aP2 and LPL gene expression is analyzed by quantitative RT-PCR as described in example 2 (see Table 10).
# [10] = value quoted from prior patents
smiles,measurement,setting,value
"COc1ccc(C(=O)Nc2ccc(Cl)c(Cl)c2)cc1N [3-amino-N-(3,4-dichlorophenyl)-4-methoxy-benzamide]",IC50,[1]; [10],0.01 µM
"c1ccc2c(c1)SCc1c-2[nH]c2ccccc12 [PD146176, 6,11-dihydro-5-thia-11-aza-benzo[a]-fluorene]",expression of the aP2 marker,"[2]; RT-PCR, D3 of differentiation, PA culture No. 1 passage 7, increasing concentrations added at D0",decreases the expression of the aP2 marker in a dose-dependent manner
same,inhibition of 15-LO-1 expression,"[2]; RT-QPCR, D7, 3 μM from D0, PA culture No. 2",almost completely
same,inhibition of 15-LO-1 expression,"[2]; RT-QPCR, D7, 3 μM from D0, PA culture No. 3",90%
same,aP2 expression,"[2]; RT-QPCR, D7 of differentiation, 3 μM from D0, PA cultures No. 2 and No. 3, vs DMSO-treated or untreated cells",strongly inhibited
same,decrease in triglyceride accumulation relative to the control,"[3]; 10 μM, D10",80%
same,triglyceride accumulation,[3]; addition at D0,dose-dependent decrease
same,expression of LPL marker,[4],dose-dependent decrease
same,expression of aP2 marker,[4],dose-dependent decrease
same,lipid accumulation in the cells (morphology),[5],dose-dependent inhibition of lipid accumulation
same,IC50,[1]; value quoted from prior literature/patents,0.5 to 0.8 µM
same,IC50,[1]; [10],0.2 µM
same,AdipoRed staining,[6],sharply decreases AdipoRed staining in a dose-dependent manner
same,adiponectin secretion,[7],sharply decreased
"COc1ccc(-c2cc3cc(F)c(F)cc3[nH]2)cc1NS(=O)(=O)NC(=O)OCC(C)C [[[[5-(5,6-difluoro-1H-indol-2-yl)-2-methoxyphenyl]amino]sulfonyl]carabamic acid isobutyl ester]",IC50,[1]; [10],0.014 µM
O=C(O)/C=C/c1ccc(O)c(O)c1 [caffeic acid],lipid accumulation in the cells (morphology),[8],inhibition of lipid accumulation
same,aP2 expression,[9],decreases aP2 expression
